According to patent US9399636B2, “Substituted dipyridylamines and uses thereof” (Genentech, Inc., priority 2012, dated 2016):

Target: T1, DLK (Homo sapiens, UniProt Q12852)
T1 construct: N-terminally GST-tagged DLK (catalytic domain amino acid 1-520) (Carna Bioscience); GST (N); purchased Carna Bioscience
T1 sequence (Q12852 1-520): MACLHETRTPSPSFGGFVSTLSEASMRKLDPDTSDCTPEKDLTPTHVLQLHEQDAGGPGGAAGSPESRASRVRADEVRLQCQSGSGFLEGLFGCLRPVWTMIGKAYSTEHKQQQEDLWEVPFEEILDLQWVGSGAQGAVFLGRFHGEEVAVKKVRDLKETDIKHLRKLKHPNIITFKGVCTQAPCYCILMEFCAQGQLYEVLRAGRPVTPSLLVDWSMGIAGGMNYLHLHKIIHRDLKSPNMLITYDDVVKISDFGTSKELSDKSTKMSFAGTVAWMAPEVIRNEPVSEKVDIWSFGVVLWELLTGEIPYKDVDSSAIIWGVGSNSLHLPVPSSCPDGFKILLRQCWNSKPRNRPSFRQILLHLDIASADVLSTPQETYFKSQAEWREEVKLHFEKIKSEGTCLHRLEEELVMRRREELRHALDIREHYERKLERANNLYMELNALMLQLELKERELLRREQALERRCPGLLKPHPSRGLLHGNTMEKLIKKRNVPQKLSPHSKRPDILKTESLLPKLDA
Experiment: DLK TR-FRET assay
Type: biochemical
Details: 5 nM GST-tagged DLK (catalytic domain amino acid 1-520), 40 nM HIS-tagged MKK4 K131M substrate, 30 μM ATP, 60 minutes
Protocol: DLK TR-FRET assay: DLK kinase reactions (20 μL) containing 5 nM N-terminally GST-tagged DLK (catalytic domain amino acid 1-520) (Carna Bioscience), 40 nM N-terminally HIS-tagged MKK4 K131M substrate, and 30 μM ATP in kinase reaction buffer (50 mM HEPES, pH 7.5, 0.01% Triton X-100, 0.01% Bovine γ-Globulins, 2 mM DTT, 10 mM MgCl2 and 1 mM EGTA), and testing compound 1:3 serial diluted starting at 20 uM were incubated at ambient temperature for 60 minutes in 384 well OptiPlate (Perkin Elmer). To quench kinase reactions and detect phosphorylated MKK4, 15 μL of TR-FRET antibody mixture containing 2 nM anti-phosphorylated MKK4 labeled with Europium cryptate (Cisbio) and 23 nM anti-HIS labeled with D2 (Cisbio) in detection buffer (25 mM Tris pH 7.5, 100 mM NaCl, 100 mM EDTA, 0.01% Tween-20, and 200 mM KF) was added to the reaction mixture. The detection mixture was incubated for 3 hours at ambient temperature and the TR-FRET was detected with an EnVision multilabel plate reader (Perkin-Elmer) using the LANCE/DELFIA Dual Enh label from Perkin-Elmer (excitation filter: UV2 (TRF) 320 and emission filters: APC 665 and Europium 615).

| Compound | Ki [nM] |
| --- | --- |
| Cc1ccnc(Nc2cc(C3CCN(S(C)(=O)=O)CC3)cc(N3CCC[C@H]3C)n2)c1 [Example 136, [1′-Methanesulfonyl-6-((R)-2-methyl-pyrrolidin-1-yl)-1′,2′,3′,4′,5′,6′-hexahydro-[4,4′]bipyridinyl-2-yl]-(4-methyl-pyridin-2-yl)-amine] | 25 |
| Cc1cc(C2CCNCC2)cc(Nc2cc(C#N)ccn2)n1 [Example 111, 2-(6-Methyl-1′,2′,3′,4′,5′,6′-hexahydro-[4,4′]bipyridinyl-2-ylamino)-isonicotinonitrile] | 89 |
| CC(=O)N1CCC(c2cc(Cl)nc(Nc3cc(C#N)ccn3)c2)CC1 [Example 65, 2-(1′-Acetyl-6-chloro-1′,2′,3′,4′,5′,6′-hexahydro-[4,4′]bipyridinyl-2-ylamino)-isonicotinonitrile] | 30 |
| Cc1cc(C2(C#N)CCOCC2)cc(Nc2cc(C#N)ccn2)n1 [Example 64, 2-[4-(4-Cyano-tetrahydro-pyran-4-yl)-6-methyl-pyridin-2-ylamino]-isonicotinonitrile] | 170 |
| COC1CN(c2cc(C3(C#N)CCOCC3)cc(Nc3cc(C(F)F)ccn3)n2)C1 [Example 54, 4-[2-(4-Difluoromethyl-pyridin-2-ylamino)-6-(3-methoxy-azetidin-1-yl)-pyridin-4-yl]-tetrahydro-pyran-4-carbonitrile] | 21 |
| FC(F)c1ccnc(Nc2cc(C3CN(CC(F)(F)F)C3)cc(Cl)n2)c1 [Example 20, {6-Chloro-4-[1-(2,2,2-trifluoro-ethyl)-azetidin-3-yl]-pyridin-2-yl}-(4-difluoromethyl-pyridin-2-yl)-amine] | 110 |
| N#CC1(c2cc(Nc3cc(C(F)F)ccn3)nc(N3CCC3)c2)CCOCC1 [Example 53, 4-[2-Azetidin-1-yl-6-(4-difluoro-methyl-pyridin-2-ylamino)-pyridin-4-yl]-tetrahydro-pyran-4-carbonitrile] | 24 |
| FC(F)(F)c1ccnc(Nc2cc(C3CCN(C4COC4)CC3)ccn2)c1 [Example 120, (1′-Oxetan-3-yl-1′,2′,3′,4′,5′,6′-hexahydro-[4,4′]bipyridinyl-2-yl)-(4-trifluoromethyl-pyridin-2-yl)-amine] | 170 |
| CCc1cc(C2CCN(C3COC3)CC2)cc(Nc2cc(C(F)F)ccn2)n1 [Example 26, (4-Difluoromethyl-pyridin-2-yl)-(6-ethyl-1′-oxetan-3-yl-1′,2′,3′,4′,5′,6′-hexahydro-[4,4′]bipyridinyl-2-yl)-amine] | 21 |
| Cc1ccnc(Nc2cc(C3CCNCC3)cc(N(C)CCO)n2)c1 [Example 144, 2-{Methyl-[6-(4-methyl-pyridin-2-ylamino)-1′,2′,3′,4′,5′,6′-hexahydro-[4,4′]bipyridinyl-2-yl]-amino}-ethanol] | 61 |
| Cc1cc(C2CCN(S(C)(=O)=O)CC2)cc(Nc2cc(C#N)ccn2)n1 [Example 109, 2-(1′-Methanesulfonyl-6-methyl-1′,2′,3′,4′,5′,6′-hexahydro-[4,4′]bipyridinyl-2-ylamino)-isonicotinonitrile] | 140 |
| CCc1cc(C2CCN(C3COC3)CC2)cc(Nc2cc(C#N)ccn2)n1 [Example 29, 2-(6-Ethyl-1′-oxetan-3-yl-1′,2′,3′,4′,5′,6′-hexahydro-[4,4′]bipyridinyl-2-ylamino)-isonicotinonitrile] | 18 |
| CCc1cc(C2CCN(C(C)=O)CC2)cc(Nc2cc(C#N)ccn2)n1 [Example 60, 2-(1′-Acetyl-6-ethyl-1′,2′,3′,4′,5′,6′-hexahydro-[4,4′]bipyridinyl-2-ylamino)-isonicotinonitrile] | 28 |

Now from value to compound:

| Ki [nM] | Compound |
| --- | --- |
| 10 | N#Cc1ccnc(Nc2cc(C3CCN(C4COC4)CC3)cc(Cl)n2)c1 [Example 106, 2-(6-Chloro-1′-oxetan-3-yl-1′,2′,3′,4′,5′,6′-hexahydro-[4,4′]bipyridinyl-2-ylamino)-isonicotinonitrile] |
| 18 | COC1CN(c2cc(C3CCN(C4COC4)CC3)cc(Nc3cc(C#N)ccn3)n2)C1 [Example 96, 2-[6-(3-Methoxy-azetidin-1-yl)-1′-oxetan-3-yl-1′,2′,3′,4′,5′,6′-hexahydro-[4,4′]bipyridinyl-2-ylamino]-isonicotinonitrile] |
| 0.2 | CC(=O)N1CCC(c2cc(Nc3cc(C#N)ccn3)nc(N3CCC[C@H]3C)c2)CC1 [Example 119, 2-[1′-Acetyl-6-((R)-2-methyl-pyrrolidin-1-yl)-1′,2′,3′,4′,5′,6′-hexahydro-[4,4′]bipyridinyl-2-ylamino]-isonicotinonitrile] |
| 0.17 | C[C@@H]1CCCN1c1cc(C2(C#N)CCNCC2)cc(Nc2cc(C#N)ccn2)n1 [Example 39, 2′-(4-Cyano-pyridin-2-ylamino)-6′-((R)-2-methyl-pyrrolidin-1-yl)-2,3,5,6-tetrahydro-1H-[4,4′]bipyridinyl-4-carbonitrile] |
| 0.17 | C[C@@H]1CCCN1c1cc(C2CCN(CCF)CC2)cc(Nc2cc(C(F)(F)F)ccn2)n1 [Example 137, [1′-(2-Fluoro-ethyl)-6-((R)-2-methyl-pyrrolidin-1-yl)-1′,2′,3′,4′,5′,6′-hexahydro-[4,4′]bipyridinyl-2-yl]-(4-trifluoromethyl-pyridin-2-yl)-amine] |
| 5.1 | COC1CN(c2cc(C3(C#N)CCNCC3)cc(Nc3cc(C(F)(F)F)ccn3)n2)C1 [Example 19, 6′-(3-Methoxy-azetidin-1-yl)-2′-(4-trifluoromethyl-pyridin-2-ylamino)-2,3,5,6-tetrahydro-1H-[4,4′]bipyridinyl-4-carbonitrile] |
| 0.3 | C[C@@H]1CCCN1c1cc(C2CCN(C3COC3)CC2)cc(Nc2cc(C(F)F)ccn2)n1 [Example 68, (4-Difluoromethyl-pyridin-2-yl)-[6-((R)-2-methyl-pyrrolidin-1-yl)-1′-oxetan-3-yl-1′,2′,3′,4′,5′,6′-hexahydro-[4,4′]bipyridinyl-2-yl]-amine] |
| 1.9 | N#Cc1ccnc(Nc2cc(C3CCN(C4COC4)CC3)cc(N3CC4CC3C4)n2)c1 [Example 90, 2-[6-(2-Aza-bicyclo[2.1.1]hex-2-yl)-1′-oxetan-3-yl-1′,2′,3′,4′,5′,6′-hexahydro-[4,4′]bipyridinyl-2-ylamino]-isonicotinonitrile] |
| 0.7 | N#Cc1ccnc(Nc2cc(C3CCN(C4COC4)CC3)cc(N3CC4CC4C3)n2)c1 (centres unmarked) [Example 92, 2-[6-(3-Aza-bicyclo[3.1.0]hex-3-yl)-1′-oxetan-3-yl-1′,2′,3′,4′,5′,6′-hexahydro-[4,4′]bipyridinyl-2-ylamino]-isonicotinonitrile] |
| 2.2 | N#Cc1ccnc(Nc2cc(C3(C#N)CCNCC3)cc(N3CCC3)n2)c1 [Example 38, 6′-Azetidin-1-yl-2′-(4-cyano-pyridin-2-ylamino)-2,3,5,6-tetrahydro-1H-[4,4′]bipyridinyl-4-carbonitrile] |
| 8.6 | N#Cc1ccnc(Nc2cc(C3(C#N)CCOCC3)cc(C3CC3)n2)c1 [Example 63, 2-[4-(4-Cyano-tetrahydro-pyran-4-yl)-6-cyclopropyl-pyridin-2-ylamino]-isonicotinonitrile] |
| 1.9 | N#Cc1ccnc(Nc2cc(C3(C#N)CCNCC3)cc(N3CC(F)C3)n2)c1 [Example 34, 2′-(4-Cyano-pyridin-2-ylamino)-6′-(3-fluoro-azetidin-1-yl)-2,3,5,6-tetrahydro-1H-[4,4′]bipyridinyl-4-carbonitrile] |
| 0.2 | C[C@@H]1CCCN1c1cc(C2(C#N)CCOCC2)cc(Nc2cc(C#N)ccn2)n1 [Example 74, 2-[4-(4-Cyano-tetrahydro-pyran-4-yl)-6-((R)-2-methyl-pyrrolidin-1-yl)-pyridin-2-ylamino]-isonicotinonitrile] |
| 0.4 | N#Cc1ccnc(Nc2cc(C3(C#N)CCOCC3)cc(N3CC4CC4C3)n2)c1 (centres unmarked) [Example 67, 2-[6-(3-Aza-bicyclo[3.1.0]hex-3-yl)-4-(4-cyano-tetrahydro-pyran-4-yl)-pyridin-2-ylamino]-isonicotinonitrile] |
| 2.8 | COC1CCN(c2cc(C3CCN(C4COC4)CC3)cc(Nc3cc(C#N)ccn3)n2)C1 (centres unmarked) [Example 88, 2-[6-(3-Methoxy-pyrrolidin-1-yl)-1-oxetan-3-yl-1′,2′,3′,4′,5′,6′-hexahydro-[4,4′]bipyridinyl-2-ylamino]-isonicotinonitrile] |
| 1.6 | N#Cc1ccnc(Nc2cc(C3CCOCC3)cc(N3CC4CC4C3)n2)c1 (centres unmarked) [Example 84, 2-[6-(3-Aza-bicyclo[3.1.0]hex-3-yl)-4-(tetrahydro-pyran-4-yl)-pyridin-2-ylamino]-isonicotinonitrile] |
